The values below are quoted from earlier work in patent EP4060021A1, “MIMETIC MICROBIOLOGICAL CULTURE MEDIUM AND USES THEREOF” (BIOFILM PHARMA, priority 2021, dated 2022).

Read-outs that look alike come from different tables or passages of the source.

Series [1] relates to souches de S. aureus issues de plaies. As to conditions: cited from earlier work.
The subject of the next series is souche de S. aureus. The note with it: modèle de sepsis, souris infectée par S. aureus, traitées; cited from earlier work.
The next series concerns S. aureus. The note with it: coculture S. aureus avec P. aeruginosa dans du milieu Lubbock; cited from earlier work.
The next series deals with P. aeruginosa. The note with it: coculture S. aureus avec P. aeruginosa dans du milieu Lubbock; cited from earlier work.

`CCCCCCCCCC(=O)N[C@@H](Cc1c[nH]c2ccccc12)C(=O)N[C@@H](CC(N)=O)C(=O)N[C@@H](CC(=O)O)C(=O)N[C@@H]1C(=O)NCC(=O)N[C@@H](CCCN)C(=O)N[C@@H](CC(=O)O)C(=O)N[C@H](C)C(=O)N[C@@H](CC(=O)O)C(=O)NCC(=O)N[C@H](CO)C(=O)N[C@@H]([C@H](C)CC(=O)O)C(=O)N[C@@H](CC(=O)c2ccccc2N)C(=O)O[C@@H]1C` (stereo in doubt) [daptomycine]: the “sensibilité des souches de S. aureus” value in series [1] (milieu DMEM) is “plus sensibles”; in series [1] (milieux MLM ou Lacks), “plus résistantes”.

As for `CC(=O)OCC1=C(C(=O)O)N2C(=O)[C@@H](NC(=O)Cc3cccs3)[C@H]2SC1` [cefalotine], the survie des souris entry with souche de S. aureus is reported as “ont survécu”.

For the compound `CO/N=C(\C(=O)N[C@@H]1C(=O)N2C(C(=O)O)=C(CSc3nc(=O)c(=O)[nH]n3C)CS[C@H]12)c1csc(N)n1` [ceftriaxone], the survie des souris entry in the series with souche de S. aureus was “ont survécu”.

As for `CC[C@H]1OC(=O)[C@H](C)[C@@H](O[C@H]2C[C@@](C)(OC)[C@@H](O)[C@H](C)O2)[C@H](C)[C@@H](O[C@@H]2O[C@H](C)C[C@H](N(C)C)[C@H]2O)[C@](C)(O)C[C@@H](C)C(=O)[C@H](C)[C@@H](O)[C@]1(C)O` [érythromycine], the survie des souris entry in the series on souche de S. aureus is reported as “ont survécu”.

As for gentamicine, the résistance en coculture result is on record as “résistance partielle” in the series with S. aureus and “ce qui n'est pas le cas” in the series with P. aeruginosa.
